Tests used:
ADORA3 = molecular target: T1, ADORA3 (Homo sapiens, UniProt P0DMS8); test: NanoBRET screen HiBiT-ADORA3 in HEK293; type: binding; details: ADORA3
T1 construct: purchased Promega (in-house HiBiT-GPCR construct library, NanoBRET)
T1 sequence (P0DMS8 1-318): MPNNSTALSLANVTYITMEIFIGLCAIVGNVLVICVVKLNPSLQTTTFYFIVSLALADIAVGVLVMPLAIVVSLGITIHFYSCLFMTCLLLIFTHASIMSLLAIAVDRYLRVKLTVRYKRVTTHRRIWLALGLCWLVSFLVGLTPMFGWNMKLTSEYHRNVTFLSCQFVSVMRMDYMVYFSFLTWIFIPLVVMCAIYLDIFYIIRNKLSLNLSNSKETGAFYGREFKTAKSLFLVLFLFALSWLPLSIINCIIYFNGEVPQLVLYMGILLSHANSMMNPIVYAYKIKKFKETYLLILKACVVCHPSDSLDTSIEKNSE
Procedure: (§1) Each tracer candidate was screened across the entire library of HiBiT-GPCR constructs using NanoBRET as the detection modality. As depicted in Figure 4A, the specificity of interactions was evaluated through decrease in BRET due to competitive displacement of a bound tracer by excess parental compound. Each tracer was analyzed for binding to each HiBiT-GPCR fusion in the absence and in the presence of competing parental compound. Briefly, HEK293 cells were transfected with HiBiT-GPCR constructs diluted into promoterless DNA to reduce expression and maximize translocation to the cell surface. Each tracer candidate was then screened at concentrations of 1 μM and 0.1 μM across cells expressing these fusions. Cells were treated for 1.5 h with tracer either alone or in the presence of 20 μM competing parental compound (i.e., control). BRET was measured upon addition of purified LgBiT and subsequent complementation with HiBiT genetically fused to a GPCR. The specificity of interactions was assessed through a decrease in BRET signal due to competitive displacement of the bound tracer. To further gauge the robustness of these interactions, the fold response over the control (i.e., BRETtracer/BRETcontrol) was calculated. We chose a 1.5-fold response, which translates to ≥7-fold signal over noise as the minimal threshold required to score an interaction as positive. […]. Below we highlight the screening results obtained for our exemplary fluorescent tracers based on Clozapine, Amitriptyline and AZD1283.
(§2) HiBiT-GPCR DNA constructs were diluted in 10 mM Tris pH 8 to a final concentration of 0.01 μg/μL, arrayed in 96-well plates and stored at −20 °C. For transfection, HEK293 cells were suspended in Opti-MEM (without phenol red) supplemented with 2% fetal bovine serum (Seradigm) and 100 units/mL penicillin–streptomycin (Gibco) at a final concentration of 220,000 cells/mL and dispensed into white 96-well plates at 90 μL/well. Subsequent transfections and screens were carried using an Agilent Bravo Automated Liquid Handling Platform. First, the 96-well HiBiT DNA arrays were diluted 25-fold in Opti-MEM (without serum or phenol red) to a final concentration of 0.0004 μg/μL and 20 μL of the diluted DNAs were transferred into new 96-well plates. Next, promoterless carrier DNA (1 μg/μL) was diluted 25-fold (0.04 μg/μL) and then dispensed into the diluted arrays at 20 μL/well. Following brief mixing, Viafect transfection reagent (Promega) diluted 16-fold into Opti-MEM was dispensed into the plates at 40 μL/well. After mixing by pipetting, plates were incubated for 10 min on the pipetting station deck. The DNA-transfection reagent complexes were then added to plates containing cells. To facilitate the screen, 10 μL of DNA-transfection reagent complexes were added in duplicates to the top 4 and bottom 4 rows, resulting in two identical 48-well arrays per plate. Plates with transfected cells were incubated for 18–20 h at 37 °C/5% CO2. A screen of each tracer across the entire library using two different concentrations requires duplicate plates of transfected cells. Depending on the number of tracers being screened, transfections can be scaled up using the same ratios. The next day, for each tracer, four 20× screening solutions in tracer dilution buffer (Promega) were prepared: two duplicates at final concentration of 20 μM and two duplicates at a final concentration of 2 μM. A competing unmodified compound was added to one of each duplicate at a final concentration of 400 μM. The four resulting solutions were diluted 4-fold in Opti-MEM without serum or phenol red to generate 5× solutions (5 µM and 0.5 µM tracer +/− 100 μM competing compound). To screen the library, a BioTek MultiFlo FX liquid dispenser was used to dispense 22.5 µL of tracer solution to the top 4 rows and 22.5 µL tracer + competing compound solution to the 4 bottom rows. Plates were briefly mixed on an orbital shaker and incubated for 1.5 h at room temperature. […]

FZD9 = molecular target: T2, FZD9 (Homo sapiens, UniProt O00144); test: NanoBRET screen HiBiT-FZD9 in HEK293; type: binding; details: FZD9
T2 construct: purchased Promega (in-house HiBiT-GPCR construct library, NanoBRET)
T2 sequence (O00144 23-591): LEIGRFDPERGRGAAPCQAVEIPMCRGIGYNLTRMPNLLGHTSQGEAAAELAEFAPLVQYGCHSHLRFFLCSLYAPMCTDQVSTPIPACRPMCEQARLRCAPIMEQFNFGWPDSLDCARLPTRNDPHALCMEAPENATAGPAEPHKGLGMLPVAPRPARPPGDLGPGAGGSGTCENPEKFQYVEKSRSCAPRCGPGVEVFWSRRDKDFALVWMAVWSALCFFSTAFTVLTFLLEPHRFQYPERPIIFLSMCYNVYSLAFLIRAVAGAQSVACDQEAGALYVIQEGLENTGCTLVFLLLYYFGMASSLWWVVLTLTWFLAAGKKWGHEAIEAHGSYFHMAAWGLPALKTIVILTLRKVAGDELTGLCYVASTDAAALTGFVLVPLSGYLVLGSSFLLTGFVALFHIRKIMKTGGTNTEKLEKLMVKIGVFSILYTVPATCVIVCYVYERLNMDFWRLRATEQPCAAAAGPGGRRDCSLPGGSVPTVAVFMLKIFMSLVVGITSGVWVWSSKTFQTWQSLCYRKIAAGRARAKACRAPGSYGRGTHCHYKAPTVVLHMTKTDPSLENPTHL
Procedure: as §1, §2

| SMILES | NanoBRET Fold Response (ADORA3; tracer 0.1μM) | NanoBRET Fold Response (ADORA3; tracer 1μM) | NanoBRET Fold Response (FZD9; tracer 0.1μM) | NanoBRET Fold Response (FZD9; tracer 1μM) | also measured |
| --- | --- | --- | --- | --- | --- |
| CN1CCN(C2=Nc3cc(Cl)ccc3Nc3ccc(CNC(=O)CCOCCOCCOCCOCCNC(=O)CCc4ccc5n4[B-](F)(F)[N+]4=C(c6ccc[nH]6)C=CC4=C5)cc32)CC1 [Clozapine-b-2-NB590] |  |  |  |  | NanoBRET Fold Response (ADORA3; 0.1μM tracer): 1.02; NanoBRET Fold Response (ADORA3; 1μM tracer): 1.08; NanoBRET Fold Response (FZD9; 0.1μM tracer): 1.02; NanoBRET Fold Response (FZD9; 1μM tracer): 1.05 |
| CN1CCN(C2=Nc3cc(Cl)ccc3N(CC(=O)NCCOCCOCCOCCOCCNC(=O)CCc3ccc4n3[B-](F)(F)[N+]3=C(c5ccc[nH]5)C=CC3=C4)c3ccccc32)CC1 [Clozapine-c-2-NB590] |  |  |  |  | NanoBRET Fold Response (ADORA3; 0.1μM tracer): 1.05; NanoBRET Fold Response (ADORA3; 1μM tracer): 0.81; NanoBRET Fold Response (FZD9; 0.1μM tracer): 0.95; NanoBRET Fold Response (FZD9; 1μM tracer): 0.95 |
| O=C(CCOCCOCCOCCOCCNC(=O)CCc1ccc2n1[B-](F)(F)[N+]1=C(c3ccc[nH]3)C=CC1=C2)NCCCN1CCN(C2=Nc3ccccc3Oc3ccc(Cl)cc32)CC1 [Loxapine-a-2-NB590] | 1.04 | 0.78 | 1.00 | 1.07 |  |
| COc1ccccc1N1CCN(CCCCN2C(=O)c3ccc(CNC(=O)CCOCCOCCOCCOCCNC(=O)CCc4ccc5n4[B-](F)(F)[N+]4=C(c6ccc[nH]6)C=CC4=C5)cc3C2=O)CC1 [NAN-190-2-NB590] | 0.96 | 0.89 | 0.96 | 1.06 |  |
| COc1ccccc1N1CCN(CCCCN2C(=O)c3ccc(CNC(=O)CCOCCNC(=O)c4ccc(CNC(=O)CCc5ccc6n5[B-](F)(F)[N+]5=C(c7ccc[nH]7)C=CC5=C6)cc4)cc3C2=O)CC1 [NAN-190-3-NB590] | 0.97 | 1.19 | 0.94 | 1.18 |  |
| O=C(CCc1ccc2n1[B-](F)(F)[N+]1=C(c3ccc[nH]3)C=CC1=C2)NCc1ccc(C(=O)NCCOCCC(=O)N[C@@H]2CC[C@@]3(O)[C@H]4Cc5ccc(O)c6c5[C@@]3(CCN4CC3CC3)[C@H]2O6)cc1 [Naltrexone-3-NB590] | 0.77 | 0.84 | 1.17 | 0.96 |  |
| Cc1cc2c(s1)Nc1ccccc1N=C2N1CCN(CCCNC(=O)CCOCCOCCOCCOCCNC(=O)CCc2ccc3n2[B-](F)(F)[N+]2=C(c4ccc[nH]4)C=CC2=C3)CC1 [Olanzapine-a-2-NB590] | 0.94 | 1.13 | 0.95 | 0.95 |  |
| O=C(CCc1ccc2n1[B-](F)(F)[N+]1=C(c3ccc[nH]3)C=CC1=C2)NCc1ccc(C(=O)NCCOCCOCCNCC(O)COc2cccc3ccccc23)cc1 (stereo not drawn) [Propranolol-3-NB590] |  |  |  |  | NanoBRET Fold Response (ADORA3; 0.1μM): 1.04; NanoBRET Fold Response (ADORA3; 1μM): 0.98; NanoBRET Fold Response (FZD9; 0.1μM): 0.98; NanoBRET Fold Response (FZD9; 1μM): 1.09 |
| O=C(CCc1ccc2n1[B-](F)(F)[N+]1=C(c3ccc[nH]3)C=CC1=C2)NCCOCCOCCNC(=O)OCCOCCN1CCN(C2=Nc3ccccc3Sc3ccccc32)CC1 [Quetiapine-a-2-NB590] | 0.98 | 0.82 | 0.84 | 0.78 |  |
